Data reported in patent US12104168B2, “Cell culture medium” (Agency For Science, Technology And Research, priority 2018, dated 2024).

System: hepSC
Assay: Dasatinib withdrawal or replacement in hSC media, maintenance of hepSC stem cell state
Conditions: for survival of hepatic stem cells: ABL kinase inhibitor together with SRC inhibition, replacing Dasatinib; for rescue of phenotype after subculturing / rescue of cell phenotype: added instead of Dasatinib; for rescue of phenotype after subculturing: 48 hr after subculturing; for rescue of cell phenotype: 6 days after withdrawal; for rescue of cell morphology changes: replacement of Dasatinib with the inhibitor, 48 hrs

Row | SMILES | survival of hepatic stem cells | rescue of phenotype after subculturing | rescue of cell phenotype | rescue of cell morphology changes
1 | Cc1ccc(NC(=O)c2ccc(CN3CCN(C)CC3)cc2)cc1Nc1nccc(-c2cccnc2)n1 [Imatinib] | seems to improved survival of hepatic stem cells | did not rescue the phenotype | did not rescue the cell phenotype | did not rescue cell morphology changes
2 | Cc1cn(-c2cc(NC(=O)c3ccc(C)c(Nc4nccc(-c5cccnc5)n4)c3)cc(C(F)(F)F)c2)cn1 [Nilotinib] | seems to improved survival of hepatic stem cells | did not rescue the phenotype | did not rescue the cell phenotype | did not rescue cell morphology changes
